“And” between values parts separate entries of the source, which are not always exact repeats. Identical values can stand only once.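 Where inhibition never reached the appropriate level, the endpoint shown equals the highest concentration tested. Otherwise, values were interpolated linearly from a five-concentration, 48-hour dose response in 96-well plates. The concentration for 50% growth inhibition is given as GI50. The concentration for full growth arrest is given as TGI.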

We go through ten compounds from PubChem BioAssay (NCI).

Test systems include HL-60(TB) leukemia; K-562 leukemia; KM12 colon; NCI-H23 lung; OVCAR-5 ovarian; SK-MEL-2 melanoma; SW-620 colon; TK-10 renal; U251 CNS; MOLT-4 leukemia.
Assay in all cases: NCI-60 cell line screen, 48 h

In the case of `C=CCN=C1N=C(CC(=O)OCC)CS1`, the TGI in the assay on HL-60(TB) leukemia, in the assay on K-562 leukemia, in the assay with KM12 colon, in the assay with NCI-H23 lung, in the assay with OVCAR-5 ovarian and with SK-MEL-2 melanoma was over 100 µM each time. Moreover, the TGI in the assay with SW-620 colon, in the assay with TK-10 renal and in the assay with U251 CNS was over 100 µM in each case.
`Cc1cc2c(C(N)=O)cccc2n1-c1nc2c(c(NCc3ccccc3)n1)CCCN2`: the GI50 in the assay on HL-60(TB) leukemia was 0.228 µM; in the assay with K-562 leukemia, 0.0955 µM; in the assay with KM12 colon, 0.195 µM; in the assay on MOLT-4 leukemia, 0.241 µM; in the assay with OVCAR-5 ovarian it was 0.23 µM; in the assay on SK-MEL-2 melanoma it was 0.112 µM. Further, the GI50 with SW-620 colon is 0.219 µM; in the assay with TK-10 renal, 0.378 µM; in the assay on U251 CNS, 0.179 µM. Also, the TGI in the assay with HL-60(TB) leukemia is 1.01 µM; with K-562 leukemia, 2.92 µM; in the assay with KM12 colon, 0.4 µM; in the assay on MOLT-4 leukemia, 1.16 µM; in the assay on OVCAR-5 ovarian, 0.585 µM; with SK-MEL-2 melanoma, 0.265 µM. For the same compound, the TGI in the assay on SW-620 colon is 0.507 µM; in the assay with TK-10 renal it was 0.809 µM; in the assay with U251 CNS it was 0.331 µM.
With `c1cncc(C(Nc2cccc3cccnc23)Nc2cccc3cccnc23)c1`, the TGI with HL-60(TB) leukemia, in the assay with K-562 leukemia, in the assay with KM12 colon, in the assay on NCI-H23 lung, in the assay with OVCAR-5 ovarian and in the assay on SK-MEL-2 melanoma was over 100 µM throughout. The TGI in the assay on SW-620 colon, with TK-10 renal and with U251 CNS was over 100 µM each time.
With `O=C(N/N=C/c1ccc(O)cc1O)c1ccc(Nc2ccnc(C(F)(F)F)c2)cc1`, the GI50 was over 34.1 µM in the assay with HL-60(TB) leukemia; over 20.7 µM with K-562 leukemia; over 100 µM with KM12 colon; over 82.1 µM in the assay on NCI-H23 lung; over 100 µM in the assay with OVCAR-5 ovarian; over 59.1 µM in the assay on SK-MEL-2 melanoma. Also, the GI50 was over 100 µM in the assay with SW-620 colon, 2.06 µM with TK-10 renal and 0.248 µM in the assay with U251 CNS. For the same compound, the TGI in the assay on HL-60(TB) leukemia, in the assay with K-562 leukemia, in the assay with KM12 colon, in the assay with NCI-H23 lung, with OVCAR-5 ovarian and in the assay on SK-MEL-2 melanoma was over 100 µM in each case. Also, the TGI in the assay on SW-620 colon is over 100 µM; in the assay with TK-10 renal, over 47.1 µM; with U251 CNS it was 21.2 µM.
Turning to `CCN(CC)CCCC(C)Nc1cnc(C(=O)Nc2cc(F)cc3cccnc23)cn1` (centres undefined), the TGI in the assay on HL-60(TB) leukemia is 25.6 µM and 31.3 µM; in the assay on K-562 leukemia, 4.97 µM and > 32.5 µM; in the assay with KM12 colon, 19.5 µM and 3.34 µM; in the assay with MOLT-4 leukemia, 6.53 µM and > 43 µM; in the assay on OVCAR-5 ovarian, 23.1 µM and 2.91 µM; in the assay on SK-MEL-2 melanoma, 10.8 µM and 6.39 µM. In addition, the TGI in the assay on SW-620 colon is 15 µM and 2.62 µM; in the assay on TK-10 renal, 22.4 µM and 3.12 µM; with U251 CNS it was 18.4 µM and 3.01 µM. Besides, the GI50 in the assay on K-562 leukemia is 1.95 µM and 0.46 µM; with KM12 colon it was 6.09 µM and 1.78 µM; in the assay on MOLT-4 leukemia it was 1.94 µM and 0.496 µM; in the assay with OVCAR-5 ovarian, 11 µM and 1.41 µM; with SK-MEL-2 melanoma it was 3.78 µM and 2.55 µM; in the assay on SW-620 colon, 4.03 µM and 0.814 µM. Also, the GI50 with TK-10 renal was 10.4 µM and 1.54 µM; in the assay on U251 CNS, 5.72 µM and 1.56 µM.
As for `Cc1ccc2c(=O)[nH]sc2c1`, the TGI was 30.8 µM in the assay with HL-60(TB) leukemia; 47.2 µM in the assay on K-562 leukemia; 23.8 µM in the assay with MOLT-4 leukemia; 42.4 µM in the assay with NCI-H23 lung; over 100 µM in the assay on OVCAR-5 ovarian; over 100 µM in the assay on SK-MEL-2 melanoma. Moreover, the results for the TGI with SW-620 colon, in the assay on TK-10 renal and in the assay with U251 CNS were 33.2 µM, 33.9 µM and 27.9 µM, respectively.
Turning to `NC1CCC[C@@H](O)[C@H]1O` (some centres undefined), the TGI in the assay on HL-60(TB) leukemia, in the assay with K-562 leukemia, in the assay with KM12 colon, in the assay on NCI-H23 lung, in the assay with OVCAR-5 ovarian and in the assay with SK-MEL-2 melanoma was over 100 µM in each case. Further, the TGI in the assay on SW-620 colon, with TK-10 renal and with U251 CNS was over 100 µM each time. Besides, in the assay with TK-10 renal, the GI50 was over 100 µM.
For `O=C(O)c1ccc([N+](=O)[O-])c2c(=O)c3ccccc3[nH]c12`, the TGI in the assay with HL-60(TB) leukemia, in the assay with K-562 leukemia, in the assay with KM12 colon, with MOLT-4 leukemia, in the assay with OVCAR-5 ovarian and with SK-MEL-2 melanoma was over 100 µM in each case. Further, the TGI in the assay on SW-620 colon and with U251 CNS was over 100 µM each time.
In the case of `COc1cc(-c2cc(-c3nc4ccccc4[nH]3)[nH]n2)cc(OC)c1OC`, the GI50 with HL-60(TB) leukemia is 2.54 µM; in the assay with K-562 leukemia, 3.08 µM; in the assay on KM12 colon it was 3.15 µM; in the assay on MOLT-4 leukemia, 2.13 µM; in the assay with NCI-H23 lung it was 2.26 µM; in the assay on OVCAR-5 ovarian, 13 µM. For the same compound, the GI50 in the assay with SW-620 colon was 7.73 µM; in the assay on TK-10 renal, 4.07 µM; in the assay on U251 CNS it was 3.73 µM. Also, the TGI with HL-60(TB) leukemia is 10.5 µM; with K-562 leukemia, over 100 µM; in the assay on KM12 colon, 11.6 µM; with MOLT-4 leukemia, 5.17 µM; in the assay with NCI-H23 lung it was 14.4 µM; in the assay with OVCAR-5 ovarian it was 32.7 µM. Also, the values for the TGI with SW-620 colon, in the assay on TK-10 renal and in the assay on U251 CNS were 30.3 µM, 22.8 µM and 32.6 µM, respectively.
Consider `O=C1C(Cl)=C(N2CCOCC2)C(=O)c2ccccc21`, for which the GI50 with HL-60(TB) leukemia was 2.33 µM; in the assay on K-562 leukemia, 2.15 µM; with KM12 colon, 13.7 µM; in the assay with NCI-H23 lung it was 3.32 µM; in the assay on OVCAR-5 ovarian it was 20.7 µM; in the assay on SK-MEL-2 melanoma, 3.82 µM. In addition, the GI50 is 1.76 µM in the assay with SW-620 colon, 16.7 µM in the assay on TK-10 renal and 5.07 µM in the assay with U251 CNS. The TGI with HL-60(TB) leukemia is 5.32 µM; in the assay with K-562 leukemia, 7.8 µM; in the assay on KM12 colon, 27.6 µM; with NCI-H23 lung, 20.9 µM; in the assay on OVCAR-5 ovarian, 36.4 µM; with SK-MEL-2 melanoma it was 11.6 µM. The TGI in the assay on SW-620 colon was 3.51 µM; with TK-10 renal, 30.4 µM; in the assay on U251 CNS, 17.8 µM.
